In the OPERA property sets (Mansouri et al. 2018):

logP	Compound
1.5	CCn1nnnc1Oc1ccc(NC(=O)N(C)C)cc1Cl
4.58	CNC(=O)N(C)C(=O)Nc1cc(C2CCCCC2)ccc1F
1.1	CCn1nnc(Oc2ccc(NC(=O)N(C)C)cc2)n1
2.67	CN(C)C(=O)Nc1ccc(Oc2nnn(C3CCCCC3)n2)cc1
3.58	CNC(=O)N(C)C(=O)Nc1cc(I)ccc1F
0.28	CN(C)C(=O)Nc1ccc(Oc2nnn(CCC#N)n2)cc1
2.08	CN(C)C(=O)Nc1ccc(Oc2nnn(C(C)(C)C)n2)cc1
2.35	Fc1ccccc1C1OCC2ON=C(c3ccccc3)C2CO1 (stereo unspecified)
2.3	CNC(=O)N(C)C(=O)Nc1cc([N+](=O)[O-])ccc1F
2.25	CN(C)C(=O)Nc1ccc(Oc2nnnn2C(C)(C)C)c(Cl)c1
2.14	CNC(=O)N(C)C(=O)Nc1cc(OC)ccc1F
0.7	CCOC(=O)Cn1nnnc1Oc1ccc(NC(=O)N(C)C)cc1
1.45	CC(C)n1nnc(Oc2ccc(NC(=O)N(C)C)cc2)n1
2.25	CN(C)C(=O)Nc1ccc(Oc2nnn(Cc3ccccc3)n2)cc1
1.65	C#CCn1nnc(Oc2ccc(NC(=O)N(C)C)cc2)n1
1.87	CNC(=O)N(C)C(=O)Nc1cc(S(=O)(=O)C(C)C)ccc1F
2.72	Cc1ccccc1C1OCC2ON=C(c3ccccc3)C2CO1 (stereo unspecified)
2.12	CNC(=O)N(C)C(=O)Nc1ccccc1F

logP	Compound
1.65	CN(C)C(=O)Nc1ccc(Oc2nnnn2C(C)(C)C)cc1
1.65	C=CCn1nnc(Oc2ccc(NC(=O)N(C)C)cc2)n1
3.53	CNC(=O)N(C)C(=O)Nc1cc(C(C)C)ccc1F
3.9	CNC(=O)N(C)C(=O)Nc1cc(Cc2ccccc2)ccc1F
3.78	CNC(=O)N(C)C(=O)Nc1cc(-c2ccccc2)ccc1F
2.28	CNC(=O)N(C)C(=O)Nc1cc(C(=O)OC)ccc1F
3.96	CCCCCCCCn1nnnc1Oc1ccc(NC(=O)N(C)C)cc1
3.23	CCc1ccc(F)c(NC(=O)N(C)C(=O)NC)c1
1.7	CN(C)C(=O)Nc1ccc(Oc2nnnn2Cc2ccccc2)cc1
3.96	CNC(=O)N(C)C(=O)Nc1cc(C(C)(C)C)ccc1F
2.4	CNC(=O)N(C)C(=O)Nc1cc(F)ccc1F
3.08	CNC(=O)N(C)C(=O)Nc1cc(OC(C)C)ccc1F
4.46	CCC(CC)c1ccc(F)c(NC(=O)N(C)C(=O)NC)c1
4.4	CCCCCCCCn1nnc(Oc2ccc(NC(=O)N(C)C)cc2)n1
3.42	c1ccc(C2=NOC3COC(c4ccccc4)OCC23)cc1 (stereo unspecified)
1	C#CCn1nnnc1Oc1ccc(NC(=O)N(C)C)cc1
0.63	CN(C)C(=O)Nc1ccc(Oc2nnn(C)n2)cc1
1.82	CNC(=O)N(C)C(=O)Nc1cc(C(C)=O)ccc1F
